# Data as given in US20230118142A1, “AGENTS FOR USE IN THE TREATMENT OF TISSUE DAMAGE” (UCL BUSINESS LTD, priority 2020, published 2023).
# How the values were obtained:
# [1] = In vivo clearance of ligand; details: male, C57BL/6, mouse, plasma, 0.5 mg; mice, intravenous; read-out: plasma t1/2 of ligand
# Experimental: (i) Ligand (0.5 mg/animal) dissolved in PBS or saline (200 μl) was injected intravenously into the tail vein of six male; 23-27 week old wild-type C57BL/6 mice. Up to two blood samples plus a terminal sample per mouse were collected at each time point up to 180 minutes.
# (ii) Serum was prepared and ˜200 ng of internal standard (either ^2H4-BPC6 or BPC9) added. Serum proteins were precipitated with 4 volumes of either ice cold methanol or acetonitrile. The supernatant was dried under vacuum and re-dissolved in 0.1% v/v aqueous formic acid. (iii) Samples were chromatographed on a Phenomenex Aqua column using a gradient of 0.1% v/v formic acid-60% v/v acetonitrile in formic acid, and the eluate passed into the positive ion source of a Quattro II triple quadrupole mass spectrometer. The MRM transitions used were m/z 449.3→390.2 and 453.→394.2 (BPC6) and m/z 477.3→418.3, […] (BPC8).
# (iv) Ligand concentrations were measured against an extracted standard curve and were plotted using Sigmaplot (v14) and fitted to a 2-parameter exponential decay.
# [2] = target: T1, CRP (Homo sapiens, UniProt P02741); experiment: In vivo clearance of CRP/ligand complexes generated in vivo in mice; set-up: The final concentrations were 0.73 μM native pentameric CRP; from tissue; details: i.v. bolus 18 h after s.c. CRP (1 mg)
# T1 sequence (P02741 19-224): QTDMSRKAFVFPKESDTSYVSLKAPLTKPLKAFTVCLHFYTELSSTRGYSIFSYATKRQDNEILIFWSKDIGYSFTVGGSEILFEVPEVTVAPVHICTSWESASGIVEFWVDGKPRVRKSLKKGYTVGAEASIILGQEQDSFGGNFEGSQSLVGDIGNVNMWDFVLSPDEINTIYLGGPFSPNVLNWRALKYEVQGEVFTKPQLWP
# Experimental: (i) Two groups of 8 wild-type C57BL/6 mice (male; 23-27 weeks old) were used: group 1 (control) and group 2 (treated).
# (ii) Both groups of animals were given 200 μl of human CRP (5 mg/ml in azide-free TC buffer) subcutaneously on day 1.
# (iii) On day 2 (+18 h), control animals were given a 200 μl intravenous bolus of TC buffer. Treated animals were given a 200 μl iv bolus of ligand (prepared at 5 mg/ml in TC buffer).
# (iv) One timed blood sample and a terminal blood sample were collected from each mouse into heparinised tubes and weighed. This generated data in quadruplicate at 4 time points, normally 30, 60, 120 and 360 minutes.
# (v) ^125I radiolabel was measured (Perkin Elmer Wizard; protocol #1) in whole blood to quantify total CRP. In some cases, electroimmunoassay as above was also used to determine total CRP concentration.
# (vi) Plasma was prepared and free CRP determined by Roche immunoassay.
# Subcutaneous injection of human CRP provided circulating CRP concentrations with which to test for effects of our ligands in vivo. (Table 4).
# [3] = target: T1, CRP; experiment: Size exclusion chromatography of CRP/ligand cross linking; type: binding; set-up: The final concentrations were 0.73 μM native pentameric CRP; from tissue
# [4] = target: T1, CRP; experiment: Immobilised phosphocholine plate assay (125I-CRP binding); set-up: The final concentrations were 0.73 μM native pentameric CRP; from tissue; details: read-out: IC50 for inhibition of 125I-CRP binding to immobilised phosphocholine
# Experimental: (i) Phosphocholine was immobilised on Greiner NHS-activated microtitre plates by incubation with 4-aminophenyl-1-phosphocholine. Remaining active sites were blocked by incubation with 4% w/v BSA in TC buffer (TCB).
# (ii) Human CRP at 1 μg/ml in TC buffer was spiked with ^125I-labelled CRP to provide 10^6 cpm/ml.
# (iii) Compounds were prepared from up to 10 mM stock solutions by dilution in TC buffer to 0.5 mM (labelled S1). Serial dilutions were prepared by diluting 100 μl ligand solution with 200 μl TC buffer (S2-S10). A ligand-free control was also used (SO, TC only).
# (iv) A 100 μl volume of CRP solution was incubated with 10 μl of each compound (S1-S10, SO) for 1 h at room temperature without stirring, to provide final ligand concentrations across the range 45.5 μM-6.9 nM with a ligand:CRP monomer molar ratio of 1151-0.06. In some cases, single fixed ligand concentrations were also assayed in comparison with PC.
# (v) A 100 μl volume of each CRP-ligand mixture was added to the plate wells and incubated for 2 h at room temperature. Solutions were then discarded and the plates washed with TCB buffer. Bound radioactivity was measured (1 min counts) using a gamma counter (Perkin Elmer Wizard 2470).
# (vi) Data were plotted with Sigmaplot v14 software using the 4-parameter logistic curve y=min+(max−min)/(1+(x/EC50)^−Hill slope) to calculate IC50.
compound,measurement,setting,value
"O=P(O)(OCCCCCCCCOP(=O)(O)O[C@@H]1CN2CCC1CC2)O[C@@H]1CN2CCC1CC2 [Pk-023, [(3S)-1-azabicyclo[2.2.2]octan-3-yloxy]({[8-({[(3S)-1-azabicyclo[2.2.2]octan-3-yloxy](hydroxy)phosphoryl}oxy)octyl]oxy})phosphinic acid]",half-life,[1],~15 min
same,Effect on detection of circulating CRP in the Roche assay,[2],the same as BPC8
same,Stable to rechromatography,[3]; CRP/ligand complex re-chromatographed in absence of free ligand,remained intact and Yes
same,CRP elution volume from Superdex 200 after pre-incubation with ligand,[3]; native CRP pentamer elutes at 13.9 ml,12.6 mL
same,IC50,[4],0.15 µM
